Results on one compound are retold here after BindingDB's records for doi:10.1021/jm950759z (Cooperation Pharmaceutique Fran?aise, 1997).

A short description of this assay: Inhibition of [3H]spiperone binding to Dopamine receptor D3 in bovine cortex.

The term Ki denotes a dissociation constant, usually derived from enzyme kinetics or from competition with a known ligand. Low values mean a stronger hold on the target, high ones a looser hold on the target. Consider `O=C1CC2(CCCC2)CC(=O)N1CCCCN1CCN(c2ncccn2)CC1` [BUSPAR], for which the Ki is 0.66 µM.
